Assay type in all cases: cell-based, human
Assay [1] deals with CD3-positive Jurkat cells. Nature of the assay: Delivery assay, Z-RFP FACS, Jurkat cells. The note with it: 1 nM, 10 nM, 100 nM; 30 minutes. As to the method: For FIG. 30 Panel E, Foralumab-LL37 was made from Foralumab (SEQ ID NOs: 129 and 130) in a sortase-catalyzed reaction to GG-LL37 peptide (SEQ ID NO: 2), and purified on Protein A chromatography. For cell delivery assay, Foralumab/Foralumab-LL37 and equimolar number of Z-RFP were added to Jurkat cells at described final concentration (i.e, 1 nM, 10 nM, and 100 nM) and incubated for 30 minutes. The liquid suspension culture was gently spun in a microcentrifuge at 2000 rpm for 4 minutes, and the clear supernatant was removed, and the cell pellet was washed in PBS and resuspended in FACS buffer (1XPBS, 2% FBS, 1 mM EDTA, 0.02% sodium azide) for analysis by FACS (Texas Red channel).

In assay [2] the test system is T47D cells. Kind of assay: Anti-HER2 mAb delivery efficiency using LL37-derived peptide constructs. The note with it: peptide conjugated to anti-HER2 mAb light chain, 100 nM Ab, Z-GFP (PEP#6, 35-43) or Goat anti-human IgG-AlexaFluor 488 (PEP#6, 47-94) fluorescence microscopy. As to the method:
(§1) LL37 and LL37-derived peptides were produced synthetically with two additional N-terminal glycine residues (e.g. as shown in SEQ ID NO:2 compared to SEQ ID NO: 1) to enable the sortase reaction. The LL37-derived peptides (PEP#35 to #43, SEQ ID NOs: 13-21) were all dissolved at 10 mg/ml in phosphate buffer saline (PBS) at room temperature, sterile-filtered, and stored at -20° C. freezer. PEP#48 (SEQ ID: 74), PEP#49 (SEQ ID No: 75), and PEP#60 (SEQ ID NO: 105) were dissolved in 20% (v/v) acetonitrile in PBS. PEP#47 (SEQ ID NO: 96), PEP#86 (SEQ ID NO: 78), PEP#98 (SEQ ID NO: 79), PEP#99 (SEQ ID NO: 80), PEP#102 (SEQ ID NO: 82), and PEP#104 (SEQ ID NO: 84) were dissolved in DMSO. PEP#50 (SEQ ID No: 76), PEP#51 (SEQ ID No: 97), PEP#55 (SEQ ID No: 77), PEP#58 (SEQ ID No: 103), PEP#59 (SEQ ID No: 104), PEP#61 (SEQ ID No: 106), PEP#62 (SEQ ID No: 107), PEP#63 (SEQ ID No: 108), PEP#64 (SEQ ID No: 109), PEP#66 (SEQ ID No: 110), and PEP#94 (SEQ ID No: 35) were all dissolved in PBS. […] The reaction was incubated inside a 37° C. incubator for 16 hours, and then EDTA (pH 7.5) was added to 10 mM in the reaction mixture to chelate calcium and stop the reaction.
Delivery assay: The following delivery assay method was used on the anti-HER2 mAbs conjugated to the PEP#6, #35, #36, #37, #38, #39, #40, #41, #42, and #43 described in Table 7. […] The plates were then removed from the incubator, and the culturing media was removed from the adherent cells. The adherent cells were washed gently with an equal volume of ice-cold PBS. Then, the PBS wash was replaced 250 µl of fresh PBS for fluorescence microscope imaging.
At the end of incubation, the adherent target cells were washed twice with ice-cold PBS, fixed with 2% (w/v) formaldehyde in PBS at room temperature for 15 minutes, and washed twice with PBS at room temperature. The fixed adherent target cells were then permeabilized with 0.05% (v/v) Tween-20 in PBS at room temperature for 15 minutes. The permeabilized cells were then incubated with 5% (v/v) FBS, 0.05% (v/v) Tween-20 in PBS at 37 degree Celsius incubator for 30 minutes. The secondary antibody, Goat anti-human IgG-AlexaFluor 488, was added to 5 ug/ml in 5% (v/v) FBS, 0.05% (v/v) Tween-20 in PBS, and incubated with the treated target cells at 37 degree Celsius incubator for 30 minutes. After incubation, the labelled cells were washed twice with PBS, and stored in storage buffer [5% (v/v) FBS in PBS] at 4 degree Celsius until fluorescence microscope imaging. The delivery of mAb and mAb-LL37-derived peptides were determined qualitatively by estimating the green fluorescence intensity emitted from the AlexFluor488-labelled secondary antibody bound to mAb or mAb-LL37-derived peptides.

Assay [3] deals with T47D cells. Kind of assay: Anti-HER2 mAb delivery efficiency using antimicrobial peptides. To be noted: peptide conjugated to anti-HER2 mAb, 100 nM + 100 nM Z-GFP, 4 hours. As to the method:
as §1
The plates were then removed from the incubator, and the culturing media was removed from the adherent cells. […] Then, the PBS wash was replaced 250 µl of fresh PBS for fluorescence microscope imaging.

For Foralumab-LL37, the “targeted delivery (in words)” value in assay [1] is reported as “more efficient than anti-CD3e mAb (i.e., Foralumab) at targeted delivery”.

Take “LLGDFFRKSKEKIGKEFKRIVQRIKDFLRNLVPRTES [PEP#6 (LL37), two N-terminal glycines added for conjugation]”: the Delivery efficiency result in assay [2] and in assay [3] was “+++ (Same as LL37)” throughout.

Values taken from patent US20230227547A1, “ANTIBODY-PAYLOAD CONJUGATES WITH ENHANCED DELIVERY DOMAIN AND USES THEREOF” (IPROGEN BIOTECH INC., priority 2019, published 2023).
